Assay results published in patent publication US20090203685A1, “ANTI-PROLIFERATIVE COMPOUNDS FROM A 3-ARYL-COUMARINE OR 3-ARYL-QUINOLIN-2-ONE AND USES THEREOF” (EOS (ETHICAL ONCOLOGY SCIENCE) S.P.A., priority 2006, published 2009).

Key:
[1] = system: Jurkat; assay: Cell cycle analysis, Jurkat; format: cell-based; conditions: 500 nM
Procedure: The cells are pelleted by gentle centrifugation 1200 rpm/5 min/4° C., then the supernatant is discarded and the cells are fixed with 1 mL of PBS/Ethanol 70% overnight at −20° C. The tubes are then centrifuged during 5 minutes at 1200 rpm and the supernatant is removed. The pellet is then re-suspended in 450 μL of PBS before 50 μL of RNAse (1 mg/mL) and 5 μL of propidium iodide (2 mg/mL) are added. Each tube is left 30 minutes at 37° C. and immediately analysed by flow cytometry after incubation.
A biparametric dot plot representation FL3 peak vs FL3 integer is plotted and the cells located on the diagonal are gated and analysed on a histogram representing the number of cells as a function of the FL3 peak.
To assess the relative position of cursors defining relative proportion of cells in subG1, G1, S or G2 phase of the cell cycle, G1 and G2 peaks are to be defined first:
The G1 peak is defined as the major peak in absence of treatment (generally X=200);
The G2 peak is centered on the value which is twice the value of the G1 peak (generally X=400).
Cells in subG1 phase are plotted in the part of the histogram preceding the G1 peak (generally X<200) and cells in S phase are enclosed in the area between the G1 and G2 peaks.
On this graphic, subG1, G1, S and G2/M phases of the cell cycle can thus be defined.
Viability and cell cycle profile, tested with compound (01), at 500 nM: […]

[2] = system: U937 cells; assay: Apoptosis assays by flow cytometry (caspase 3, annexin-V, sub-G1, G2/M, PI) in U937 cells; format: cell-based, human; conditions: 0.5 μM, 4 to 24 hours
Procedure: FIG. 4: This figure depicts the time course of cellular effects induced by 0.5 μM of compound 01 in U937 cells.
The percentage of cells showing activated Caspase 3 and phosphadityl serine exposure at the outer face of the plasma membrane were determined by flow cytometry, according the enclosed protocols. Both assays enable to detect early markers of apoptosis. […] Such DNA content is classically used as a marker of apoptosis. […] Finally, in this same experiment, the percentage of dead cells was determined by incorporation of propidium iodine. […]
Wells corresponding to 4, 6, 8, 10 hours of incubation and Control 1 were analyzed on day 1.
Wells corresponding to 12, 14, 16, 20, 24 hours of incubation and Control 2 were analyzed on day 2. […]
Briefly, 5×10^5 cells were pelleted by centrifugation 1600 rpm/4° C., resuspended in 100 μl of ice-cold 1× Annexin-V Binding Buffer containing 1 μl of Annexin V-FITC solution and 5 μl of PI (250 μg/ml). After 15 minutes of incubation on ice in the dark, 400 μl of 1× binding buffer were added and cell preparations analysed by flow cytometry. […]
For each data point, a minimum of 20.000 cells were analysed.
Caspase-3,7 activity and Annexin-V binding were quantified using the FL-1 channel while PI staining was quantified using the FL-4 channel. […]

Q: `COc1cc(NC(=S)NC(=O)/C=C/c2ccco2)ccc1-c1cc2ccccc2oc1=O` [Compound 01, (2E)-3-(2-furyl)-N-({[3-methoxy-4-(2-oxo-2H-chromen-3-yl)phenyl]amino}carbonothioyl)acrylamide] was tested. Which “Cell cycle profile - 72 h” value [1] did it give?
A: The value was “Strong sub-G1”.

Q: And the “Cytostatic effect on U937 cells (early increase of G2/M population)” value [2]?
A: The value was “cytostatic effect”.

Q: And the “Induction of apoptosis (activated caspase 3, phosphatidylserine exposure, sub-G1 DNA content)” value [2]?
A: The value was “induces apoptosis”.
